Laboratory results published in patent US10351546B2, “Pyridin-3-yl acetic acid derivatives as inhibitors of human immunodeficiency virus replication” (priority 2015, dated 2019).
Where two headings read alike, the source gives them in different places.

Tested on: NL-RLuc virus
Test: Inhibition of HIV replication (NL-RLuc luciferase reporter virus in MT-2 cells)
Assay type: cell-based
Conditions: Human immunodeficiency virus 1, MT2, 120 h
Method in brief: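 MT-2 cells were infected with NL4-3-derived virus carrying Renilla luciferase in place of part of nef, in RPMI/10% FBS, with serial compound dilutions. Luciferase read after 5 days of multicycle replication. EC50 from the median effect equation, at least 2 experiments.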

Row | SMILES | EC50 (read-out: Activity) | EC50 (read-out: EC50 μM)
1 | Cc1nc(CN2CCC3(CCC3)CC2)c(-c2ccc(OCCc3ccc(F)cc3)cc2)c(N2CCC(C)(C)CC2)c1[C@H](OC(C)(C)C)C(=O)O [Example 82, (S)-2-(6-(7-Azaspiro[3.5]nonan-7-ylmethyl)-4-(4,4-dimethylpiperidin-1-yl)-5-(4-(4-fluorophenethoxy)phenyl)-2-methylpyridin-3-yl)-2-(tert-butoxy)acetic acid] | < 0.1 µM | 
2 | Cc1nc(CN2CCS(=O)(=O)CC2)c(-c2ccc(OCCc3ccc(F)cc3)cc2)c(N2CCC(C)(C)CC2)c1[C@H](OC(C)(C)C)C(=O)O [Example 83, (S)-2-(tert-Butoxy)-2-(4-(4,4-dimethylpiperidin-1-yl)-6-((1,1-dioxidothiomorpholino)methyl)-5-(4-(4-fluorophenethoxy)phenyl)-2-methylpyridin-3-yl)acetic acid] | < 0.1 µM | 
3 | Cc1nc(CN(C)CC2CCOCC2)c(-c2ccc(OCCc3ccc(F)cc3)cc2)c(N2CCC(C)(C)CC2)c1[C@H](OC(C)(C)C)C(=O)O [Example 84, (S)-2-(tert-Butoxy)-2-(4-(4,4-dimethylpiperidin-1-yl)-5-(4-(4-fluorophenethoxy)phenyl)-2-methyl-6-((methyl((tetrahydro-2H-pyran-4-yl)methyl)amino)methyl)pyridin-3-yl)acetic acid] | < 0.1 µM | 
4 | COC1CCN(Cc2nc(C)c([C@H](OC(C)(C)C)C(=O)O)c(N3CCC(C)(C)CC3)c2-c2ccc(OCCc3ccc(F)cc3)cc2)CC1 [Example 85, (S)-2-(tert-Butoxy)-2-(4-(4,4-dimethylpiperidin-1-yl)-5-(4-(4-fluorophenethoxy)phenyl)-6-((4-methoxypiperidin-1-yl)methyl)-2-methylpyridin-3-yl)acetic acid] | < 0.1 µM | 0.001 µM
5 | Cc1nc(CN2CCC(F)(F)CC2)c(-c2ccc(OCCc3ccc(F)cc3)cc2)c(N2CCC(C)(C)CC2)c1[C@H](OC(C)(C)C)C(=O)O [Example 86, (S)-2-(tert-Butoxy)-2-(6-((4,4-difluoropiperidin-1-yl)methyl)-4-(4,4-dimethylpiperidin-1-yl)-5-(4-(4-fluorophenethoxy)phenyl)-2-methylpyridin-3-yl)acetic acid] | < 0.1 µM | 
6 | Cc1nc(CN2CCC(O)CC2)c(-c2ccc(OCCc3ccc(F)cc3)cc2)c(N2CCC(C)(C)CC2)c1[C@H](OC(C)(C)C)C(=O)O [Example 87, (S)-2-(tert-Butoxy)-2-(4-(4,4-dimethylpiperidin-1-yl)-5-(4-(4-fluorophenethoxy)phenyl)-6-((4-hydroxypiperidin-1-yl)methyl)-2-methylpyridin-3-yl)acetic acid] | < 0.1 µM | 
7 | Cc1nc(CN2CCC(C)(C)CC2)c(-c2ccc(OCCc3ccc(F)cc3)cc2)c(N2CCC(C)(C)CC2)c1[C@H](OC(C)(C)C)C(=O)O [Example 88, (S)-2-(tert-Butoxy)-2-(4-(4,4-dimethylpiperidin-1-yl)-6-((4,4-dimethylpiperidin-1-yl)methyl)-5-(4-(4-fluorophenethoxy)phenyl)-2-methylpyridin-3-yl)acetic acid] | < 0.1 µM | 
8 | Cc1nc(CN2CCCc3ccccc32)c(-c2ccc(OCCc3ccc(F)cc3)cc2)c(N2CCC(C)(C)CC2)c1[C@H](OC(C)(C)C)C(=O)O [Example 89, (S)-2-(tert-Butoxy)-2-(6-((3,4-dihydroquinolin-1(2H)-yl)methyl)-4-(4,4-dimethylpiperidin-1-yl)-5-(4-(4-fluorophenethoxy)phenyl)-2-methylpyridin-3-yl)acetic acid] | < 0.1 µM | 
9 | Cc1nc(CN2CCC(F)CC2)c(-c2ccc(OCCc3ccc(F)cc3)cc2)c(N2CCC(C)(C)CC2)c1[C@H](OC(C)(C)C)C(=O)O [Example 90, (S)-2-(tert-Butoxy)-2-(4-(4,4-dimethylpiperidin-1-yl)-5-(4-(4-fluorophenethoxy)phenyl)-6-((4-fluoropiperidin-1-yl)methyl)-2-methylpyridin-3-yl)acetic acid] | < 0.1 µM | 
10 | COc1ccccc1NCc1nc(C)c([C@H](OC(C)(C)C)C(=O)O)c(N2CCC(C)(C)CC2)c1-c1ccc(OCCc2ccc(F)cc2)cc1 [Example 91, (S)-2-(tert-Butoxy)-2-(4-(4,4-dimethylpiperidin-1-yl)-5-(4-(4-fluorophenethoxy)phenyl)-6-(((2-methoxyphenyl)amino)methyl)-2-methylpyridin-3-yl)acetic acid] | < 0.1 µM | 0.018 µM
11 | Cc1nc(CN2CC(C)OC(C)C2)c(-c2ccc(OCCc3ccc(F)cc3)cc2)c(N2CCC(C)(C)CC2)c1[C@H](OC(C)(C)C)C(=O)O (stereo partly drawn) [Example 92, (2S)-2-(tert-Butoxy)-2-(6-((2,6-dimethylmorpholino)methyl)-4-(4,4-dimethylpiperidin-1-yl)-5-(4-(4-fluorophenethoxy)phenyl)-2-methylpyridin-3-yl)acetic acid] | < 0.1 µM | 
12 | COCCN(CCOC)Cc1nc(C)c([C@H](OC(C)(C)C)C(=O)O)c(N2CCC(C)(C)CC2)c1-c1ccc(OCCc2ccc(F)cc2)cc1 [Example 93, (S)-2-(6-((Bis(2-methoxyethyl)amino)methyl)-4-(4,4-dimethylpiperidin-1-yl)-5-(4-(4-fluorophenethoxy)phenyl)-2-methylpyridin-3-yl)-2-(tert-butoxy)acetic acid] | < 0.1 µM | 
13 | Cc1nc(CN2CCN(C)CC2)c(-c2ccc(OCCc3ccc(F)cc3)cc2)c(N2CCC(C)(C)CC2)c1[C@H](OC(C)(C)C)C(=O)O [Example 94, (S)-2-(tert-Butoxy)-2-(4-(4,4-dimethylpiperidin-1-yl)-5-(4-(4-fluorophenethoxy)phenyl)-2-methyl-6-((4-methylpiperazin-1-yl)methyl)pyridin-3-yl)acetic acid] | < 0.1 µM | 
14 | Cc1nc(CNCc2ccccn2)c(-c2ccc(OCCc3ccc(F)cc3)cc2)c(N2CCC(C)(C)CC2)c1[C@H](OC(C)(C)C)C(=O)O [Example 95, (S)-2-(tert-Butoxy)-2-(4-(4,4-dimethylpiperidin-1-yl)-5-(4-(4-fluorophenethoxy)phenyl)-2-methyl-6-(((pyridin-2-ylmethyl)amino)methyl)pyridin-3-yl)acetic acid] | < 0.1 µM | 
15 | Cc1nc(CN2[C@@H]3CC[C@H]2CN(C)C3)c(-c2ccc(OCCc3ccc(F)cc3)cc2)c(N2CCC(C)(C)CC2)c1[C@H](OC(C)(C)C)C(=O)O [Example 96, (S)-2-(tert-butoxy)-2-(4-(4,4-dimethylpiperidin-1-yl)-5-(4-(4-fluorophenethoxy)phenyl)-2-methyl-6-(((1R,5S)-3-methyl-3,8-diazabicyclo[3.2.1]octan-8-yl)methyl)pyridin-3-yl)acetic acid] | < 0.1 µM | 
16 | Cc1nc(CN(C)Cc2ccccc2)c(-c2ccc(OCCc3ccc(F)cc3)cc2)c(N2CCC(C)(C)CC2)c1[C@H](OC(C)(C)C)C(=O)O [Example 97, (S)-2-(6-((Benzyl(methyl)amino)methyl)-4-(4,4-dimethylpiperidin-1-yl)-5-(4-(4-fluorophenethoxy)phenyl)-2-methylpyridin-3-yl)-2-(tert-butoxy)acetic acid] | < 0.1 µM | 
17 | Cc1nc(CN2C3CC2CN(Cc2ccccc2)C3)c(-c2ccc(OCCc3ccc(F)cc3)cc2)c(N2CCC(C)(C)CC2)c1[C@H](OC(C)(C)C)C(=O)O [Example 98, (2S)-2-(6-((3-Benzyl-3,6-diazabicyclo[3.1.1]heptan-6-yl)methyl)-4-(4,4-dimethylpiperidin-1-yl)-5-(4-(4-fluorophenethoxy)phenyl)-2-methylpyridin-3-yl)-2-(tert-butoxy)acetic acid] | < 0.1 µM | 
18 | Cc1nc(CNCC2CCCCC2)c(-c2ccc(OCCc3ccc(F)cc3)cc2)c(N2CCC(C)(C)CC2)c1[C@H](OC(C)(C)C)C(=O)O [Example 99, (S)-2-(tert-Butoxy)-2-(6-(((cyclohexylmethyl)amino)methyl)-4-(4,4-dimethylpiperidin-1-yl)-5-(4-(4-fluorophenethoxy)phenyl)-2-methylpyridin-3-yl)acetic acid] | < 0.1 µM | 
19 | Cc1nc(CN(C)CC2CCCCC2)c(-c2ccc(OCCc3ccc(F)cc3)cc2)c(N2CCC(C)(C)CC2)c1[C@H](OC(C)(C)C)C(=O)O [Example 100, (S)-2-(tert-Butoxy)-2-(6-(((cyclohexylmethyl)(methyl)amino)methyl)-4-(4,4-dimethylpiperidin-1-yl)-5-(4-(4-fluorophenethoxy)phenyl)-2-methylpyridin-3-yl)acetic acid] | < 0.1 µM | 0.003 µM
20 | CC(=O)N(C)Cc1nc(C)c([C@H](OC(C)(C)C)C(=O)O)c(N2CCC(C)(C)CC2)c1-c1ccc(OCCc2ccc(F)cc2)cc1 [Example 101, (S)-2-(tert-Butoxy)-2-(4-(4,4-dimethylpiperidin-1-yl)-5-(4-(4-fluorophenethoxy)phenyl)-2-methyl-6-((N-methylacetamido)methyl)pyridin-3-yl)acetic acid] | < 0.1 µM | 
21 | Cc1nc(CN(C)C(=O)C(=O)N(C)C)c(-c2ccc(OCCc3ccc(F)cc3)cc2)c(N2CCC(C)(C)CC2)c1[C@H](OC(C)(C)C)C(=O)O [Example 102, (S)-2-(tert-Butoxy)-2-(6-((2-(dimethylamino)-N-methyl-2-oxoacetamido)methyl)-4-(4,4-dimethylpiperidin-1-yl)-5-(4-(4-fluorophenethoxy)phenyl)-2-methylpyridin-3-yl)acetic acid] | < 0.1 µM | 
22 | Cc1nnc(C(=O)N(C)Cc2nc(C)c([C@H](OC(C)(C)C)C(=O)O)c(N3CCC(C)(C)CC3)c2-c2ccc(OCCc3ccc(F)cc3)cc2)o1 [Example 103, (S)-2-(tert-butoxy)-2-(6-((N,5-dimethyl-1,3,4-oxadiazole-2-carboxamido)methyl)-4-(4,4-dimethylpiperidin-1-yl)-5-(4-(4-fluorophenethoxy)phenyl)-2-methylpyridin-3-yl)acetic acid] | < 0.1 µM | 
23 | Cc1nnc(C(=O)NCc2nc(C)c([C@H](OC(C)(C)C)C(=O)O)c(N3CCC(C)(C)CC3)c2-c2ccc(OCCc3ccc(F)cc3)cc2)o1 [Example 104, (S)-2-(tert-Butoxy)-2-(4-(4,4-dimethylpiperidin-1-yl)-5-(4-(4-fluorophenethoxy)phenyl)-2-methyl-6-((5-methyl-1,3,4-oxadiazole-2-carboxamido)methyl)pyridin-3-yl)acetic acid] | < 0.1 µM | 
